From ChEMBL document CHEMBL1201862, “PubChem BioAssay data set” (2004)
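A five-concentration, 48-hour dose response in 96-well plates underlies each endpoint, interpolated linearly between surrounding concentrations. GI50 marks 50% less growth.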 The source made the active and inactive calls. Rule as the data show it: active = GI50 up to about 1.1 µM and inactive = higher.

How the values were obtained:
Assay in all cases: inhibition of tumour cell growth, NCI panel, 48 h
[1] = system: LOX IMVI
[2] = system: IGROV-1
[3] = system: NCI-H460
[4] = system: OVCAR-4
[5] = system: OVCAR-5
[6] = system: HCC 2998
[7] = system: MDA-MB-435
[8] = system: SK-MEL-28
[9] = system: OVCAR-3
[10] = system: SNB-75
[11] = system: K562
[12] = system: RPMI-8226
[13] = system: SR
[14] = system: SF-295
[15] = system: HCT-116
[16] = system: TK-10
[17] = system: Hs-578T
[18] = system: M14
[19] = system: NCI-H23
[20] = system: Malme-3M
[21] = system: DU-145
[22] = system: MDA-N
[23] = system: PC-3
[24] = system: 786-0
[25] = system: HT-29
[26] = system: BT-549
[27] = system: UACC-62
[28] = system: MDA-MB-231
[29] = system: U-251
[30] = system: NCI/ADR-RES
[31] = system: RXF 393
[32] = system: T47D
[33] = system: UACC-257
[34] = system: CAKI-1
[35] = system: SN12C
[36] = system: NCI-H522
[37] = system: UO-31
[38] = system: SW-620
[39] = system: SNB-19
[40] = system: SK-MEL-2
[41] = system: A549
[42] = system: SK-OV-3
[43] = system: HOP-62
[44] = system: MCF7
[45] = system: HCT-15
[46] = system: A498
[47] = system: ACHN
[48] = system: KM12
[49] = system: SK-MEL-5
[50] = system: MOLT-4
[51] = system: HL-60
[52] = system: OVCAR-8
[53] = system: CCRF-CEM
[54] = system: COLO 205
[55] = system: HOP-92
[56] = system: SF-539
[57] = system: SF-268

Measured: GI50

Cl/C(=N\c1cccc2ccccc12)N(c1ccccc1)c1ccccc1
inactive: [1] > 100 µM | [2] > 100 µM | [3] 28.4 µM | [4] > 100 µM | [5] > 100 µM | [6] 19.7 µM | [7] > 100 µM | [8] > 100 µM | [9] 60.1 µM | [10] > 100 µM | [11] 31.8 µM | [12] 27.1 µM | [13] 25.4 µM | [14] 67.6 µM | [15] 73.5 µM | [16] 72.3 µM | [17] > 100 µM | [18] 43 µM | [19] > 100 µM | [20] 39 µM | [21] > 100 µM | [22] 52 µM | [23] 44.6 µM | [24] > 100 µM | [25] 52.7 µM | [26] > 100 µM | [27] 75.2 µM | [28] > 100 µM | [29] 57.7 µM | [30] > 100 µM | [31] > 100 µM | [32] 61.4 µM | [33] 70 µM | [34] > 100 µM | [35] > 100 µM | [36] 41.2 µM | [37] > 100 µM | [38] 92.7 µM | [39] > 100 µM | [40] > 100 µM | [41] 56.5 µM | [42] > 100 µM | [43] > 100 µM | [44] 35.2 µM | [46] > 100 µM | [47] 66.7 µM | [48] 75 µM
> 100 µM: [45]

COc1cc(OC)c2nccc(NCCCN(C)C)c2c1[N+](=O)[O-]
inactive: [49] > 100 µM | [1] > 100 µM | [2] 49.5 µM | [50] > 100 µM | [3] 65.3 µM | [4] > 100 µM | [5] > 100 µM | [51] 39.3 µM | [6] > 100 µM | [7] > 100 µM | [8] > 100 µM | [9] 49.3 µM | [10] 30.9 µM | [11] 87.9 µM | [12] > 100 µM | [13] 24.7 µM | [14] > 100 µM | [15] 62.4 µM | [16] > 100 µM | [17] > 100 µM | [52] > 100 µM | [18] 27.3 µM | [19] > 100 µM | [20] 55.1 µM | [21] > 100 µM | [22] > 100 µM | [53] > 100 µM | [23] > 100 µM | [24] > 100 µM | [25] 35 µM | [54] 34.1 µM | [26] > 100 µM | [27] > 100 µM | [55] 61.1 µM | [28] > 100 µM | [29] > 100 µM | [30] > 100 µM | [32] > 100 µM | [33] 58.3 µM | [34] > 100 µM | [56] 45.7 µM | [35] > 100 µM | [36] > 100 µM | [57] > 100 µM | [37] > 100 µM | [38] 95.9 µM | [39] > 100 µM | [40] > 100 µM | [41] > 100 µM | [42] > 100 µM | [43] > 100 µM | [44] > 100 µM | [46] > 100 µM | [47] > 100 µM | [48] > 100 µM
> 100 µM: [45]
